Assay results as given in US20050209157A1, “Short bioactive peptides and methods for their use” (priority 2001, published 2005).
Read-outs that look alike come from different tables or passages of the source. No end group written: not given here.

Experiments:
[1] = tested on: Stapholococcus aureus ATCC 25923; experiment: Antimicrobial assay I, modified protocol (tryptic soy broth), MBC; settings: minimum bactericidal concentration, Table 4
[2] = tested on: Escherichia coli ATCC 25922; experiment: as above; settings: minimum bactericidal concentration, Table 4
[3] = tested on: Pseudomonas aeruginosa ATCC 27853; experiment: as above; settings: minimum bactericidal concentration, Table 4
in vitro [4] = type: cell-based, human; settings: human, human red blood cells
in vitro [5] = settings: human, WI38 normal lung fibroblast cells, WI-38 LD50, Table 26, valine substitution
fungal = experiment: Presently preferred antifungal peptides, selected from the MIC/MBC data; type: cell-based; settings: X = preferred
Text: The peptide's “length” is the number of amino acid residues in the sequence.

cancer cell lines = experiment: Anti-cancer assays, MTT, summary over the cancer cell lines; type: cell-based; settings: X = preferred
[6] = tested on: Candida albicans ATCC 10231; experiment: Antimicrobial assay I, modified protocol (tryptic soy broth), MFC; settings: minimum fungicidal concentration, Table 4
WI38 = settings: Table 27
[7] = tested on: Pseudomonas aeruginosa ATCC 9027; experiment: Antimicrobial assay I, MIC by OD measurement; type: cell-based
S. typhimurium 14028S = type: cell-based, Salmonella typhimurium; settings: Table 11
S. aureus (MRSA) = type: cell-based, Staphylococcus aureus; settings: Table 11, strain SAP0017; in µg/mL
[8] = tested on: Candida glabrata ATCC15126; experiment: Antimicrobial assays II, NCCLS broth microdilution MIC; type: cell-based; settings: Table 10; in µg/mL
[9] = tested on: Pseudomonas aeruginosa H187; type: cell-based; settings: Table 11; in µg/mL
E. coli UB1005 = type: cell-based, Escherichia coli; settings: Table 11
[10] = tested on: Candida tropicalis ATCC13803; experiment: Antimicrobial assays II, NCCLS broth microdilution MIC; type: cell-based; settings: Table 10
Description: Anti-microbial activity against a broader range of pathogens (including clinical strains) than were tested in Example 2. It should be noted that somewhat different protocols were employed for the assays in Example 2 and Example 3.
MICs were determined for this Example using a slightly modified version of the NCCLS (National Committee for Clinical Laboratory Standards) broth microdilution method as described previously (Steinberg et al., AAC 41: 1738, 1997). Briefly, antimicrobial agents were prepared as 10× concentrates in the most appropriate solvent. For the peptide, 0.01% acetic acid containing 0.2% bovine serum albumin as a carrier protein was used. Inocula were prepared by resuspending colonies from a BAP in medium and adjusting the suspension to match that of a 0.5 McFarland standard. The suspension was diluted into fresh medium (as recommended by NCCLS for the organism) to give 2×10^5 to 7×10^5 CFU/ml for bacteria or 2×10^3 to 7×10^3 CFU/ml for Candida. After dispensing 100 μl aliquots of the microbial suspension into each well of a 96-well polypropylene microtiter plate, 11 μl of test compound was added. […] For facultative anaerobes incubation was performed in 7% carbon dioxide and for strict anaerobes in an oxygen free environment maintained using a standard anaerobic “jar”. All MICs were performed three times and the mean value determined.

Candida albicans 105 = type: cell-based; settings: Table 10; in µg/mL
Escherichia coli 25922 = experiment: microbe, parasite or virus in culture; settings: for MBC: Escherichia coli, 25922, read-out: MBC, Without peptide
Text: Synergy between peptide Shiva-10 (SEQ ID NO:4) and various antimicrobial agents was investigated against Escherichia coli 25922.
Synergy between tetracycline and various peptides was investigated against Escherichia coli 25922 MBC. […] When combined with the peptides, the concentration of tetracycline was held at 1.5 ppm.

[11] = tested on: human red blood cells (RBC); experiment: in vitro; type: cell-based; settings: Table 27
[12] = tested on: MCF7 line of breast cancer cells
[13] = pH 7, Table 26, valine substitution, read-out: Hemolysis RBC LD50
[14] = pH 7, Table 27, read-out: Hemolysis (LD50)

Compound	MBC S. aur A.25923 [1] [µg/mL]	MBC E. coli A.25922 [2] [µg/mL]	MBC P. aerug A.27853 [3] [µg/mL]	Anti-fungal (preferred peptide) (fungal)	Anti-cancer (preferred peptide) (cancer cell lines)	MFC Candida A.10231 [6] [µg/mL]	MIC S. typhimurium 14028S (S. typhimurium 14028S) [µg/mL]	MIC S. aureus SAP0017 (S. aureus (MRSA))	MIC C. glabrata ATCC15126 [8]	MIC P. aeruginosa H187 [9]	MIC E. coli UB1005 (E. coli UB1005) [µg/mL]	MIC C. tropicalis ATCC13803 [10] [µg/mL]	MIC C. albicans 105 (Candida albicans 105)	also measured
VAKLLAKLAKKLL-NH2 [compound 48]	4	8	25	X (Preferred antifungal peptides can be selected as having MIC or MBC values of less than or equal to about 25 μg/ml)	X (Preferred anticancer peptides can be selected as having LD50 values of less than or equal to about 25 μg/ml)	10	–	–	–	–	–	–	–	HC50 at 1 h (in vitro [4]; [13]): 130 µg/mL; HC50 at 1 h (in vitro [4]; [14]): 200 µg/mL; CC50 at 24 h (in vitro [5]): 160 µg/mL; WI38 LD50 (WI38): 160 µg/mL; P. aerug (MIC) [7]: 5 µg/mL
FAKLLAKALKKL-NH2 [P103 (67)]	–	–	–	–	–	–	128	64	16	64	32	2	16	–
FAKLLAKLAKKL-NH2 [P49 (31)]	–	–	–	–	–	–	64	64	16	16-64	32	2	16	–
FAKLLAKFLKKAL-NH2 [P113 (77)]	–	–	–	–	–	–	44	32	32	32-128	32	4	32	–
VAKLLAKLAKKVL-NH2 [P154 (116)]	–	–	–	–	–	–	> 128	>128	128	>128	64	8	64	–
FALALKALKKLKKALKKAL-NH2 [FLAK 06AM (P27; SEQ ID NO: 12)]	–	–	–	–	–	–	–	–	–	–	–	–	–	MBC, Without tetracycline (Escherichia coli 25922; peptide alone): 75 µg/mL; MBC, With tetracycline (Escherichia coli 25922; tetracycline held at […]): 25 µg/mL
FAKLLAKLAKKVL-NH2 [compound 124]	8	10	40	X (Preferred antifungal peptides can be selected as having MIC or MBC values of less than or equal to about 25 μg/ml)	X (Preferred anticancer peptides can be selected as having LD50 values of less than or equal to about 25 μg/ml)	15	–	–	–	–	–	–	–	HC50 at 1 h (in vitro [4]; [13]): 55 µg/mL; HC50 at 1 h (in vitro [4]; [14]): 300 µg/mL; CC50 at 24 h (in vitro [5]): 21 µg/mL; WI38 LD50 (WI38): 21 µg/mL; P. aerug (MIC) [7]: 100 µg/mL
FAKKLKKLAKKL-NH2 [P79 (54)]	–	–	–	–	–	–	> 128	>128	128	>128	32	2	32	–
FAKLLAKLAKKLL-NH2 [compound 43]	4	8	15	X (Preferred antifungal peptides can be selected as having MIC or MBC values of less than or equal to about 25 μg/ml)	X (Preferred anticancer peptides can be selected as having LD50 values of less than or equal to about 25 μg/ml)	15	–	–	–	–	–	–	–	HC50 at 1 h (in vitro [4]; [13]): 20 µg/mL; Hemolysis (LD50) [11]: 20 µg/mL; CC50 at 24 h (in vitro [5]): 25 µg/mL; WI38 LD50 (WI38): 25 µg/mL; P. aerug (MIC) [7]: 100 µg/mL
C[C@H]1c2cccc(O)c2C(=O)C2=C(O)[C@]3(O)C(=O)C(C(N)=O)=C(O)[C@@H](N(C)C)[C@@H]3[C@@H](O)[C@@H]21 [Doxycycline]	–	–	–	–	–	–	–	–	–	–	–	–	–	MBC (Escherichia coli 25922): 5 µg/mL; MBC, With peptide (Escherichia coli 25922; with 15 μg/mL peptide Shiva-10): 1 µg/mL
CC/C(=C(\c1ccccc1)c1ccc(OCCN(C)C)cc1)c1ccccc1 [Tamoxifen]	–	–	–	–	–	–	–	–	–	–	–	–	–	MCF7 LD50 ([12]; agent alone): 20 µg/mL; Active agent LD50 on MCF7 cells: Total conc. ([12]; peptide plus tamoxifen concentration at LD50): 20 µg/mL; Active agent LD50 on MCF7 cells: Tamox. conc. ([12]; tamoxifen concentration at LD50 (peptide with tamoxifen; tamoxifen alone in its own line)): 20 µg/mL
NC[C@@H]1O[C@H](O[C@H]2[C@@H](O)[C@H](O[C@@H]3[C@@H](O)[C@H](N)C[C@H](N)[C@H]3O[C@H]3O[C@H](CN)[C@@H](O)[C@H](O)[C@H]3N)O[C@@H]2CO)[C@H](N)[C@@H](O)[C@@H]1O [Neomycin]	–	–	–	–	–	–	–	–	–	–	–	–	–	MBC, Without peptide (Escherichia coli 25922; agent alone): 100 µg/mL; MBC, With peptide (Escherichia coli 25922; with 5 μg/mL peptide Shiva-10): 5 µg/mL
NCC[C@H](O)C(=O)N[C@@H]1C[C@H](N)[C@@H](O[C@H]2O[C@H](CN)[C@@H](O)[C@H](O)[C@H]2O)[C@H](O)[C@H]1O[C@H]1O[C@H](CO)[C@@H](O)[C@H](N)[C@H]1O [Amikacin]	–	–	–	–	–	–	–	–	–	–	–	–	–	MBC (Escherichia coli 25922): 150 µg/mL; MBC, With peptide (Escherichia coli 25922; with 5 μg/mL peptide Shiva-10): 50 µg/mL
FALALKKALKALKKAL-NH2 [compound 34]	40	15	15	X (Preferred antifungal peptides can be selected as having MIC or MBC values of less than or equal to about 25 μg/ml)	X (Preferred anticancer peptides can be selected as having LD50 values of less than or equal to about 25 μg/ml)	>40	–	–	–	–	–	–	–	–
FAKLLAKALKKLL-NH2 [compound 55]	4	4	10	X (Preferred antifungal peptides can be selected as having MIC or MBC values of less than or equal to about 25 μg/ml)	X (Preferred anticancer peptides can be selected as having LD50 values of less than or equal to about 25 μg/ml)	25	–	–	–	–	–	–	–	HC50 at 1 h (in vitro [4]; [13]): 20 µg/mL; CC50 at 24 h (in vitro [5]): 32 µg/mL
FALALKALKKLKKALKKAL-OH [27B]	>40	40	10	X (Preferred antifungal peptides can be selected as having MIC or MBC values of less than or equal to about 25 μg/ml)	X (Preferred anticancer peptides can be selected as having LD50 values of less than or equal to about 25 μg/ml)	>40	–	–	–	–	–	–	–	–
